Data published in publication PMC8302598, “Rapid discovery of self-assembling peptides with one-bead one-compound peptide library” (Nature Communications, 2021).
Entries after “also recorded” stand apart in the source; their conditions may differ.

What was measured:
Type in all cases: physicochemical
[1] = Appearance and TEM of 30 mM peptide in water
Description: To further characterize these self-assembling peptides, we selected two positive peptides (FFVDF and YFTEF) and a negative control peptide (PFTTR) for the following studies: Fourier transform infrared (FT-IR) spectroscopy, UV−Vis spectra, and transmission electron microscopy (TEM).
(§1) Pentapeptides monomers were dissolved in DMSO at a concentration of 5.0 mM, followed by quick injection into water at a volume ratio of 1:99 for DMSO and H2O to obtain the nanomaterials solution (50 μM). For 30 mM pentapeptide solution, the pentapeptide was dissolved in water and sonicated for 3 min.
(§2) The pentapeptide solution with the concentration of 20 μM (10 μL) was placed dropwise onto a copper mesh for 5 min, then most of the liquid was removed through a filter paper. Ten microliters of uranyl acetate solution were employed to stain the samples for 5 min, followed by drying the spare liquid with the filter. Finally, the copper mesh was washed with 10 μL of deionized water, which was blotted after staining and drying at room temperature. All of the samples were observed by TEM (Tecnai G2 20 S-TWIN) at an accelerating voltage of 200 kV.

[2] = Self-assembly of resynthesized soluble pentapeptides; settings: self-assembly under aqueous environment
From the text: (§3) Once the screening method has been validated with our model KLVFF peptide, a totally random pentapeptide library with 19[5] permutations (cysteine was omitted from the library) was constructed using our previously published methods (Supplementary Fig. 3)[23]. Again, TentaGel S resin (loading of 0.31 mmol/g) was used as the solid support. The pentapeptides in the library were N-terminally capped with NBD. […] The positive bead with an intense fluorescent signal (pointed with a solid arrow) was noted. The rest of the beads were considered negative or weak positive beads. From a total of approximately 100 000 beads screened, we selected a total of eight strongest fluorescent positive beads and four dark beads as negative beads. The peptides were then resynthesized in soluble form and purified by high-performance liquid chromatography (HPLC) for testing (Supplementary Figs. 4–12). The amino acid sequences of the eight self-assembling pentapeptides are FTISD, ITSVV, YFTEF, ISDNL, LDFPI, FAGFT, FGFDP, and FFVDF. Not unexpectedly, of the 40 amino acids in these eight pentapeptides, 50% are hydrophobic residues, predominated by Phe (11 Phe, 4 Ile, 3 Val, and 2 Leu). For the remaining 20 amino acids, six are acidic residues (5 Asp and 1 Glu) and seven are neutral and hydrophilic (4 Thr and 3 Ser). The rest are 2 Pro, 2 Gly, 1 Tyr, 1 Asn, and 1 Ala. All eight peptides have at least two hydrophobic residues. Six out of the eight peptides have one negatively charged residue (Asp or Glu). The remaining two peptides are neutral. […] For the Pro containing pentapeptides, LDFPI and FGFDP, the Pro residue, which promotes peptide turns, resides at the fourth and fifth positions, but not in the middle. Not unexpectedly, all the four randomly selected negative non-assembling peptides (RITTR, PLVKA, PFTTR, and QIMRW) have very different sequences, and contain at least one positive charged amino acid.
To estimate the propensity of the identified peptides to self-assemble, the critical micelle concentrations (CMC) of the eight positive peptides and four negative peptides were determined, and the results are shown in Table 1 and Supplementary Figs. 13, 14. The CMC of all the eight positive peptides were detectable and found to range between 8.4 and 14.8 μM, indicating the propensity for these peptides to self-assemble under aqueous environment. […] Hydrophobicity of peptides can be predicted by the value of GRAVY[28] with more negative value for more hydrophilic peptides. Of the four negative assembling peptides, two have a negative GRAVY value. […] Experimental testing, such as the screening strategy described in this work, is needed. This is because multiple factors, including hydrophobicity, hydrogen-bonding, electrostatic interactions, and positions of each residue within the peptides, all contribute to the assembling and final morphology of the self-assembled nano-structure. […]

[3] = TEM morphology and size of peptide nano-assemblies over time; settings: same peptide preparation in water with 1% DMSO
From the text: Self-assembling peptides with good biocompatibility may be used to construct nanocarriers for drug delivery. We recently reported the use of FFVLK, the reverse sequence of KLVFF, as a self-aggregating β-sheet forming domain for the delivery of HER2 targeting peptides for successful treatment of breast cancer in xenograft models. Such FFVLK containing peptide is able to self-assemble into nanoparticles. Upon intravenous administration, the FFVLK-nanoparticle was able to transform into nanofibrillar network when encountering HER2 at the tumor sites. To investigate the morphology of the nano-assembly formed by the eight self-assembling peptides, we dissolved each of these peptides in DMSO (5 mM) and then diluted them 100X with water at a final peptide concentration of 50 μM to induce spontaneous self-assembly. Each sample was fixed immediately after peptide solution preparation and at 4 h time point for subsequent TEM processing and analysis. As clearly shown in Fig. 4a, all eight self-assembling peptides initially formed some nanostructures: nanoparticles for ITSVV, YFTEF, ISDNL, LDFPI, FAGFT, FGFDP, and FTISD; nanofibers for FFVDF. […] LDFPI (8 nm) maintained the particulate morphology without changing of diameter in 4 h. FFVDF formed nanofibers at 0 and 4 h. […] Time-dependent size variations of pentapeptides in water were further confirmed by DLS spectra (Supplementary Fig. 18). The initial diameters of nanoparticles formed by seven pentapeptides were larger than that observed by TEM, probably due to hydration radius. The size of the nanostructure increased over time, correlating well with the morphologic transformation. […] Circular dichroism (CD) was used to monitor the secondary structures of the nano-assembly of the eight self-assembling peptides over time (Supplementary Fig. 20).
as §1, §2

[4] = Fluorescent-activation screening assay on OBOC beads (NBD); settings: for Fluorescence (beads): peptide N-terminally capped with NBD on TentaGel S beads, in water, fluorescence microscope; for Bead fluorescence in methanol: NBD N-capped peptide on TentaGel S beads, 20 min
From the text: It is well known that Aβ16–20 peptide sequence KLVFF can self-assemble into nanofibers in water. We, therefore, chose it as a model peptide to test our screening strategy and used KAAGG as the non-assembling negative control. These control peptides, N-terminally capped with NBD were synthesized with standard Fmoc-chemistry, and TentaGel S resin beads as solid support but without any cleavable linker. After side-chain deprotection, the beads were thoroughly washed with DMF, which was replaced stepwise with water or methanol and then examined under a fluorescent microscope. […] This is expected as the hydrophobicity-sensitive fluorescence dye NBD would fluoresce brightly under hydrophobic condition, in this case, methanol. In water, we expect fluorescent signal emitted from non-sequestered NBD to diminish, unless it is buried inside a hydrophobic environment such as within peptide aggregates or β-sheets formed by KLVFF peptides.
as §3
The OBOC pentapeptide libraries (19[5]) were built using Fmoc strategy SPPS (solid-phase peptide synthesis) (Supplementary Fig. 3). TentaGel S Resin (named N-beads with loading 0.31 mmol/g) was used as the solid phase support. The pentapeptide sequence of X1 X2 X3 X4 X5 was constructed in the library, in which X1−X5 represents either Ala, Asp, Glu, Phe, Gly, His, Ile, Lys, Leu, Met, Asn, Pro, Gln, Arg, Ser, Thr, Val, Trp, and Tyr residues. During the synthesis of OBOC library, solid support beads were mixed and split equally in each cycle, then different amino acids were added, separately, the process was repeated four times. The synthesis of peptides was used anhydrous DMF as solvent. The Fmoc group was removed by 20% (v/v) piperidine in DMF and the deprotection time was 10 min twice. During the coupling step, the HBTU (4 mM) and Fmoc-amino acid (4 mM) were dissolved in DMF containing NMM (0.4 mM). The coupling time was 50 min. Qualitative Fmoc deprotection and coupling were confirmed by ninhydrin test. All the above experiments were carried out in the solid phase peptide synthesis vessels with sieves in it. […]

[5] = Turbidity test (transmittance spectra); settings: 20 μM peptide in water
Description: To further confirm the peptide assembling in water, the solutions of pentapeptide were diluted to 20 μM for turbidity test.

[6] = Fluorescent-activation screening assay on OBOC beads (NBD); settings: peptide beads incubated with free dye in water for 2 hours

Substance | Assembly [2] | Nanostructures detected by TEM (negative controls) [3] | Fluorescence (beads) [4] | further results
PFTTR [randomly selected negative non-assembling pentapeptide] | No | no nanostructures were detected | Off | Nanostructure under TEM ([1]; 30 mM in H2O): no nanostructures observed; Appearance of peptide in water ([1]; 30 mM in water, sonicated 3 min): completely clear solution; Transmittance at 400 nm [5]: 100%
(NBD)-KAAGG-beads [non-assembling negative control KAAGG N-terminally capped with NBD on TentaGel S resin beads, reference compound] | – | – | did not | Bead fluorescence in methanol [4]: bright fluorescence
(NBD)-LIVGD-beads [additional positive control LIVGD N-capped with NBD on beads, reference compound] | – | – | fluorescence-on | –
KAAGG-beads [negative control peptide KAAGG on beads, probed with free reporter dye] | – | – | – | Bead fluorescence with free dye (ThT, Nile Red or NBD) [6]: fluorescent off
(NBD)-KLVFF-beads [positive control: Aβ16–20 peptide KLVFF N-terminally capped with NBD on TentaGel S resin beads, reference compound] | – | – | fluoresced brightly; also recorded: fluorescence-on | Bead fluorescence in methanol [4]: bright fluorescence
RITWI [randomly selected negative non-assembling pentapeptide] | No | no nanostructures were detected | Off | –
QIMRW [randomly selected negative non-assembling pentapeptide] | No | no nanostructures were detected | Off | –
PLVKA [randomly selected negative non-assembling pentapeptide] | No | no nanostructures were detected | Off | –
(NBD)-NFGAIL-beads [additional positive control NFGAIL N-capped with NBD on beads, reference compound] | – | – | fluorescence-on | –
